# Source: ChEMBL document CHEMBL6115031, “Structure-Based Optimization of Moracin M as Potent and Selective PDE4 Inhibitors with Antipsoriasis Effects” (J Med Chem, 2025)
# Active and inactive are the calls of the source. The rule behind the calls is not given here.
# Columns and labels:
# [1] = biological target: 3',5'-cyclic-AMP phosphodiesterase 4C (Homo sapiens, UniProt Q08493); assay: Inhibition of PDE4C1 (314 to 639 residues) (unknown origin) extracted from Escherichia coli BL21 cells using 3H-cAMP/3H-cGMP as substrate preincubated with compound for 15 mins followed by substrate addition by liquid scintillation counter
# 3',5'-cyclic-AMP phosphodiesterase 4C, sequence (Q08493 whole entry, the tested form may be a part): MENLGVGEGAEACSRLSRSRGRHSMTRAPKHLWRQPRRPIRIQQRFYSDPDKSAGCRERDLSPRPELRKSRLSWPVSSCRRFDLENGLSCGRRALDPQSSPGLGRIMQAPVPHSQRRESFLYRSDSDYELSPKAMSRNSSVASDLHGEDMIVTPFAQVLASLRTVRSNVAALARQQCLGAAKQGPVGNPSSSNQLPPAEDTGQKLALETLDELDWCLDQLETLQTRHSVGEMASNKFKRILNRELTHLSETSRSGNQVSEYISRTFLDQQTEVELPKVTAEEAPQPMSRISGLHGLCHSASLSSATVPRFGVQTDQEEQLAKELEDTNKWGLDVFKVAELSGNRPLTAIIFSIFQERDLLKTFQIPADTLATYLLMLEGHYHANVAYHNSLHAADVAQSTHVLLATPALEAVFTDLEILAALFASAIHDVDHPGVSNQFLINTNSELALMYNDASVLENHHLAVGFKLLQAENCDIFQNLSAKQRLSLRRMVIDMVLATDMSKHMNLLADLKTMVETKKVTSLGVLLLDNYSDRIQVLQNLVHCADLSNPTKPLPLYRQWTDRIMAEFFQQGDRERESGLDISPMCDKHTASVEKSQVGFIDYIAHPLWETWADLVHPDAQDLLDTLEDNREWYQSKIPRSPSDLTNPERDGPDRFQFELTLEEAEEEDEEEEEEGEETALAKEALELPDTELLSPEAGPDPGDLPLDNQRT
# [2] = system: Mus musculus; assay: Anti-psoriasis effect in IMQ-induced female BALB/c mouse assessed as reduction in skin thickness at 20 mg/kg administered topically as 0.3 % ointment pretreated with IMQ for 6 hrs followed by compound addition once daily for 7 days; format: functional, organism-based; conditions: time 7.0 day
# [3] = system: Mus musculus; assay: Anti-inflammatory activity in IMQ-induced psoriasis in female BALB/c mouse assessed as reduction in CCL-20 mRNA level at 20 mg/kg administered topically as 0.3 % ointment pretreated with IMQ for 6 hrs followed by compound addition once daily for 7 days by q-PCR analysis; format: functional, organism-based; conditions: time 7.0 day
# [4] = Metabolic stability in rat liver microsomes assessed as half life at 1 uM incubated upto 60 mins in presence of NADPH by LC-MS/MS analysis; format: ADME, Microsome
# [5] = biological target: cGMP-specific 3',5'-cyclic phosphodiesterase (Homo sapiens, UniProt O76074); assay: Inhibition of PDE5A1 (535 to 860 residues) (unknown origin) extracted from Escherichia coli BL21 cells using 3H-cAMP/3H-cGMP as substrate preincubated with compound for 15 mins followed by substrate addition by liquid scintillation counter
# [6] = Drug absorption in rat skin assessed as skin permeability by measuring cumulative transdermal amount per unit area administered topically as 0.3% ointment at 100 mg by HPLC analysis; format: ADME, tissue-based, Skin of body; conditions: in vivo, topical_or_ocular
# [7] = system: RAW264.7; assay: Cytotoxicity against mouse RAW264.7 cells assessed as reduction in cell viability at 5 to 80 uM incubated for 24 hrs by CCK-8 assay; format: toxicity, cell-based; conditions: raw264.7, 24 h, dose 5-80 µM
# [8] = system: HaCaT; assay: Cytotoxicity against human HaCaT cells assessed as reduction in cell viability at 5 to 80 uM incubated for 24 hrs by CCK-8 assay; format: toxicity, cell-based; conditions: dose 5-80 µM
# [9] = system: Mus musculus; assay: Anti-inflammatory activity in IMQ-induced psoriasis in female BALB/c mouse assessed as reduction in IL-6 mRNA level at 20 mg/kg administered topically as 0.3 % ointment pretreated with IMQ for 6 hrs followed by compound addition once daily for 7 days by q-PCR analysis; format: functional, organism-based; conditions: time 7.0 day
# [10] = system: Mus musculus; assay: Anti-psoriasis effect in female BALB/c mouse model assessed as increase in K1 protein expression at 20 mg/kg administered topically as 0.3 % ointment pretreated with IMQ for 6 hrs followed by compound addition once daily for 7 days by Western blotting analysis; format: functional, organism-based; conditions: time 7.0 day
# [11] = biological target: High affinity 3',5'-cyclic-AMP phosphodiesterase 7A (Homo sapiens, UniProt Q13946); assay: Inhibition of PDE7A1 (130 to 482 residues) (unknown origin) extracted from Escherichia coli BL21 cells using 3H-cAMP/3H-cGMP as substrate preincubated with compound for 15 mins followed by substrate addition by liquid scintillation counter
# High affinity 3',5'-cyclic-AMP phosphodiesterase 7A, sequence (Q13946 whole entry, the tested form may be a part): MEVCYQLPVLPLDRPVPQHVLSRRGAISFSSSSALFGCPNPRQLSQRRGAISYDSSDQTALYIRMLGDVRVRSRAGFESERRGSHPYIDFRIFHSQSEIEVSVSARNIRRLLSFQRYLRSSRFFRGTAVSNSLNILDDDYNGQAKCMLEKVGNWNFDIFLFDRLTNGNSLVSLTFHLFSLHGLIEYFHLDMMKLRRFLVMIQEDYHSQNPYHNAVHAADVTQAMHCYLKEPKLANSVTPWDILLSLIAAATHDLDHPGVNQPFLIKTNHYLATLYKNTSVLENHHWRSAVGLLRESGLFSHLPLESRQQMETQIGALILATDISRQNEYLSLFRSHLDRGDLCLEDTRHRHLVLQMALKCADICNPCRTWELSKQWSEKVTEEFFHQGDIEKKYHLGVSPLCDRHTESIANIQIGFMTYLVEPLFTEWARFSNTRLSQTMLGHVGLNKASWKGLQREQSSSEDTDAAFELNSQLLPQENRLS
# [12] = biological target: 3',5'-cyclic-AMP phosphodiesterase 4D (Homo sapiens, UniProt Q08499); assay: Inhibition of human PDE4D2 (86 to 413 residues) extracted from Escherichia coli BL21 cells using 3H-cAMP/3H-cGMP as substrate preincubated with compound for 15 mins followed by substrate addition by liquid scintillation counter
# 3',5'-cyclic-AMP phosphodiesterase 4D, sequence (Q08499 whole entry, the tested form may be a part): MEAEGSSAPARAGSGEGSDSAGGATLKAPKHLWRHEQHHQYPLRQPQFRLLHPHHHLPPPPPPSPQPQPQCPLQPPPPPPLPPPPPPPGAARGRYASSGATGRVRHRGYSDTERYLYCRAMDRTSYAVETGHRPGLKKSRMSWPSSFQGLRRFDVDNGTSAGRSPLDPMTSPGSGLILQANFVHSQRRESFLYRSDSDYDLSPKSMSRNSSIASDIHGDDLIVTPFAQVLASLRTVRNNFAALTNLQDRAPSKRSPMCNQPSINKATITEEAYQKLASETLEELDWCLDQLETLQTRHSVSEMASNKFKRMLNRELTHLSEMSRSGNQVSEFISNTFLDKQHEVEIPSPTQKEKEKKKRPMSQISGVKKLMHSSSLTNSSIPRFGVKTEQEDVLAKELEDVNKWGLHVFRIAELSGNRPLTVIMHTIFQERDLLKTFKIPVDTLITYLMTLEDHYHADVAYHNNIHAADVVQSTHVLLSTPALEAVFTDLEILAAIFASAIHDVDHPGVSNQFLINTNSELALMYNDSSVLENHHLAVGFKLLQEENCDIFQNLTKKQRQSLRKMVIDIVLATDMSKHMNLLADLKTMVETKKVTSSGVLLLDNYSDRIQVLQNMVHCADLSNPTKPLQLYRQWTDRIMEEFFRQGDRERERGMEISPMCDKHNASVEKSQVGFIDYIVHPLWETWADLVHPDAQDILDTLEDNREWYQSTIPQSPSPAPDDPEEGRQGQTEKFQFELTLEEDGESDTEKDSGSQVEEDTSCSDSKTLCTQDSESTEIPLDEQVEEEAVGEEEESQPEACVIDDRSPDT
# [13] = system: RAW264.7; assay: Anti-inflammatory activity in LPS-stimulated mouse RAW264.7 cells assessed as reduction in IL-1beta mRNA level pretreated with compound for 2 hrs followed by LPS stimulation and measured after 6 hrs by q-PCR analysis; format: functional, cell-based; conditions: dose 5-20 µM, time 8.0 hrs
# [14] = system: Mus musculus; assay: Anti-psoriasis effect in IMQ-induced female BALB/c mouse assessed as decrease in skin scales at 20 mg/kg administered topically as 0.3 % ointment pretreated with IMQ for 6 hrs followed by compound addition once daily for 7 days; format: functional, organism-based; conditions: time 7.0 day
# [15] = system: Mus musculus; assay: Anti-inflammatory activity in IMQ-induced psoriasis in female BALB/c mouse assessed as reduction in TNF-alpha mRNA level at 20 mg/kg administered topically as 0.3 % ointment pretreated with IMQ for 6 hrs followed by compound addition once daily for 7 days by q-PCR analysis; format: functional, organism-based; conditions: time 7.0 day
# [16] = system: Mus musculus; assay: Anti-psoriasis effect in IMQ-induced female BALB/c mouse model assessed as reduction in spinous layer thickness at 20 mg/kg administered topically as 0.3 % ointment pretreated with IMQ for 6 hrs followed by compound addition once daily for 7 days by H and E staining based analysis; format: functional, organism-based; conditions: time 7.0 day
# [17] = system: Mus musculus; assay: Anti-psoriasis effect in IMQ-induced female BALB/c mouse model assessed as reduced bleeding in dermal papilla layers at 20 mg/kg administered topically as 0.3 % ointment pretreated with IMQ for 6 hrs followed by compound addition once daily for 7 days by H and E staining based analysis; format: functional, organism-based; conditions: time 7.0 day
# [18] = system: HaCaT; assay: Anti-psoriasis activity in M5-stimulated human HaCaT cells assessed as restoration of cAMP level at 20 uM incubated for 2 hrs by competitive ELISA; format: functional, cell-based
# [19] = system: Mus musculus; assay: Anti-psoriasis effect in female BALB/c mouse model assessed as increase in K10 protein expression at 20 mg/kg administered topically as 0.3 % ointment pretreated with IMQ for 6 hrs followed by compound addition once daily for 7 days by Western blotting analysis; format: functional, organism-based; conditions: time 7.0 day
# [20] = system: HaCaT; assay: Anti-inflammatory activity in M5- stimulated human HaCaT cells assessed as reduction in IL-17 mRNA level incubated for 24 hrs by q-PCR analysis; format: functional, cell-based; conditions: dose 5-20 µM
# [21] = system: Mus musculus; assay: Anti-psoriasis effect in IMQ-induced female BALB/c mouse assessed as reduction in psoriasis area at 20 mg/kg administered topically as 0.3 % ointment pretreated with IMQ for 6 hrs followed by compound addition once daily for 7 days; format: functional, organism-based; conditions: time 7.0 day
# [22] = system: HaCaT; assay: Anti-psoriasis effect in M5-stimulated human HaCaT cells assessed as upregulation of K1 protein expression at 20 uM pretreated with M5 followed by compound addition and measured after 24 hrs by Western blotting analysis; format: functional, cell-based
# [23] = system: Mus musculus; assay: Anti-inflammatory activity in IMQ-induced psoriasis in female BALB/c mouse assessed as reduction in IL-1beta mRNA level at 20 mg/kg administered topically as 0.3 % ointment pretreated with IMQ for 6 hrs followed by compound addition once daily for 7 days by q-PCR analysis; format: functional, organism-based; conditions: time 7.0 day
# [24] = system: HaCaT; assay: Anti-inflammatory activity in M5- stimulated human HaCaT cells assessed as reduction in CXCL-2 mRNA level incubated for 24 hrs by q-PCR analysis; format: functional, cell-based; conditions: dose 5-20 µM
# [25] = system: Mus musculus; assay: Anti-psoriasis effect in IMQ-induced female BALB/c mouse assessed as change in body weight at 20 mg/kg administered topically as 0.3 % ointment pretreated with IMQ for 6 hrs followed by compound addition once daily for 7 days; format: functional, organism-based; conditions: time 7.0 day
# [26] = system: Mus musculus; assay: Anti-psoriasis effect in IMQ-induced female BALB/c mouse assessed as reduction in psoriasis severity index score at 20 mg/kg administered topically as 0.3 % ointment pretreated with IMQ for 6 hrs followed by compound addition once daily for 7 days; format: functional, organism-based; conditions: time 7.0 day
# [27] = system: RAW264.7; assay: Anti-inflammatory activity in LPS-stimulated mouse RAW264.7 cells assessed as reduction in TNF-alpha mRNA level pretreated with compound for 2 hrs followed by LPS stimulation and measured after 6 hrs by q-PCR analysis; format: functional, cell-based; conditions: dose 5-20 µM, time 8.0 hrs
smiles,measurement,setting,value
COC(=O)[C@H]1C[C@@H](Oc2c(O)ccc3cc(-c4ccc(OC(F)F)c(OCC5CC5)c4)oc23)CN1,IC50,[1],0.747 µM
same,Activity,[2],Active
same,Activity,[3],Active
same,half-life at 1 µM,[4],22.9 min
same,IC50,[5],1.73 µM
same,Drug absorption,[6],15.78 microg/cm2
same,Activity,[7],Non-toxic
same,Activity,[8],Non-toxic
same,Activity,[9],Active
same,Activity,[10],Active
same,IC50,[11],5.91 µM
same,IC50,[12],0.0086 µM
same,Activity,[13],Dose-dependent-effect
same,Activity,[14],Active
same,Activity,[15],Active
same,Activity,[16],Active
same,Activity,[17],Active
same,Activity,[18],Active
same,Activity,[19],Active
same,Activity,[20],Dose-dependent-effect
same,Activity,[21],Active
same,Activity,[22],Active
same,Activity,[23],Active
same,Activity,[24],Dose-dependent-effect
same,Activity,[25],Active
same,Activity,[26],Active
same,Activity,[27],Dose-dependent-effect
